For 7 compounds, EC50, inhibition and cytotoxicity results are on record in patent publication US6107316A, “Method for treating protozoal infections” (priority 1998, dated 2000).

Converted amounts (≈) assume the structure as drawn. Where two headings read alike, the source gives them in different places.

In data set [1] the test system is Giardia lamblia. Kind of data set: in vitro growth inhibitory activity against Giardia lamblia. The data set is classed as cell-based. Conditions: Giardia duodenalis; concentration required to inhibit growth by 50%. The protocol: 35, pp. 2198-2202 (1991). EC50 values for test compounds, expressed in parts per million (ppm), were calculated from dose response curves and are presented in Table 4. As used herein, the terminology "EC50" means the concentration of test compound required to inhibit growth by 50% are compared to a control lacking the test compound. Metronidazole was included as a standard in the tests for comparative purposes.

The test system of data set [2] is Tetrahymena pyriformis. In words: in vitro growth inhibitory activity against the ciliate Tetrahymena pyriformis. The data set is classed as cell-based, Tetrahymena pyriformis (ATCC strain 30005). The conditions noted are these: read-out: EC50 Tetrahymena pyriformis. The procedure:
Compounds were evaluated for in vitro growth inhibitory activity against the ciliate Tetrahymena pyriformis, which was used as an indicator organism for the Apicomplexia since by several criteria the ciliates and Apicomplexa are closely related (Edlind T. D. et al., Mol. Phylogenet. Evol. vol. 5, pp. 359-367, 1996). T. pyriformis (ATCC strain 30005) was grown in 1 ml ATCC medium 357 at 25° C. in 4 ml polyallomer culture tubes without shaking. Compounds were dissolved in dimethylsufoxide (DMSO) and added to the cultures (containing 3,000 cells/ml) such that the final DMSO concentration was 0.1-0.3%. […] Parasitol. vol. 84, pp. 355-370, 1996) and Cryptosporidium parvum (Arrowood et al., FEMS Microbial. Lett., vol. 136, pp. 245-249, 1996) were tested for comparison.

Data set [3] has as its system Leishmania major. In words: in vitro growth inhibitory activity against L. major promastigotes. The class given is cell-based. An excerpt: 35, pp. 2198-2202 (1991).
A short description of data set [4]: cytotoxicity towards HFF host cells (Cell Titer 96). The conditions noted are these: human, % Inhibition of host cell growth (values in parenthesis). The protocol: (§1) Cytotoxicity of the test compounds towards host cells was determined using the Cell Titer 96™ it (Promega Corporation, Madison, Wis.) as follows. Cells were seeded at a concentration of 5×10^3 cells per well containing 100 μl of medium in 96-well flat-bottom microtiter plates and incubated at 37° C. in a 5% carbon dioxide environment for 4 hours. Dilutions of the test compounds prepared as described above were then added, and incubation continued for 24, 48 or 72 hours. Four hours before each of these time points the growth medium containing test compound was replaced with 100 μl of fresh medium followed by addition of 16 μl of the kit dye solution. After incubation at 37° C. for another 4 hours, 100 μl of the kit solubilization/stop solution was added to each well, the contents of the wells were mixed and the plates kept 1 hour at room temperature. The plates were then read spectrophotometrically in a plate reader at a wavelength of 570 nm. […] Atovaquone was included in the test as a standard.

Data set [5] deals with Cryptosporidium parvum. In words: growth inhibitory activity against C. parvum in host MDBKF5D2 cells (immunofluorescence). The data set is classed as cell-based. The conditions noted are these: Cryptosporidium parvum, 48 h. The procedure: (§2) Compounds were tested for in vitro growth inhibitory activity against C. parvum grown in host MDBKF5D2 cells and for toxicity towards the host cells as follows. […] To test for toxicity towards the host cells, the media containing test compound (200 μl) were introduced into two wells of a 96 well microtiter plate containing confluent MDBKF5D2 cell monolayers and two wells without monolayers, and incubated at 37° C. in an 8% carbon dioxide environment. After 48 hours, the tetrazolium salt MTS (Owen's solution) and phenazine methosulfate were added to each well at concentrations of 333 μg/ml and 25 μM, respectively. The plate was returned to the incubator in the dark to develop for 2 hours, then 100 μl of each supernatant was transferred to a new microtiter plate and read spectrophotometrically in a plate reader at a wavelength of 490 nm. Percent toxicity was calculated by subtracting the mean optical density (OD) of the drug supernatants from the OD of medium control supernatants (no drug), dividing by the OD of the medium control, and multiplying by 100. To test for growth inhibitory activity against C. parvum, 3×10^4 oocysts per well were incubated in mentioned concentrations of each drug at 37° C. (8% CO2) on confluent MDBKF5D2 cell monolayers in 96 well microtiter plates. After 48 hours, the level of infection in each well was determined by means of an immunofluorescence assay. Percent inhibition of growth was calculated by subtracting the mean parasite count in the wells containing test compound from the mean parasite count in the medium control wells (no test compound), dividing by the mean parasite count in the medium control wells, and multiplying by 100. Paromomycin was included in the test as a standard.

Data set [6] is described as follows: toxicity towards MDBKF5D2 host cells (MTS). Conditions: bovine, mdbkf5d2 cells, Cytotoxicity (percent toxicity). The procedure: as §2
For data set [7], the system named is Toxoplasma gondii. Kind of data set: growth inhibition of T. gondii in L929 host cells ([3H]-uracil incorporation). The data set is classed as cell-based. The conditions noted are these: Toxoplasma gondii, L929 host cells, read-out: % Inhibition; for inhibition at 0.5 µg/mL: 0.5 μg/ml; for inhibition at 5 µg/mL: 5.0 μg/ml. The procedure:
(§3) Compounds were tested for it vitro growth inhibitory activity against Toxoplasma gondii replication in L929 (L929-ATCC CCL 1, mouse connective tissue) or HFF (human foreskin fibroblast) host cells using the [^3 H]-uracil incorporation technique as follows. Host cells were grown in 96-well flat-bottom microtiter plates at 37° C in a 5% carbon dioxide environment in modified Eagle's medium containing penicillin, streptomycin and 10% fetal equine serum. Wells containing a homogeneous confluent monolayer of host cells were infected with T. gondii tachyzoites at a ratio of 3 parasites per cell (approximately 6×10^4 tachyzoites per well containing 100 μl of medium). […] Two hours post infection, the cultures were washed to remove free parasites and the various dilutions of test compound were added. Cells were subsequently collected at 24, 48 and 72 hours. Four hours prior to each harvesting 50 Al of [^3 H]-uracil (1 μCi) was added. Cells were collected using a cell harvester and incorporated radioactivity was measured using a scintillation counter. […]

The subject of data set [8] is Toxoplasma gondii. Kind of data set: growth inhibition of T. gondii in HFF host cells ([3H]-uracil incorporation). Conditions: Toxoplasma gondii; for inhibition at 0.5 µg/mL: 0.5 μg/ml. The data set is classed as cell-based. The protocol: as §3
Data set [9] is described as follows: cytotoxicity towards L929 host cells (Cell Titer 96). Conditions: mouse, % Inhibition of host cell growth (values in parenthesis). The procedure:
as §1

Where [10] appears, read: 24 h, HFF host cells, 24 hours, read-out: % Inhibition.
[11] abbreviates: 24 h, HFF host cells, 5.0 μg/ml, 24 hours, read-out: % Inhibition.
Setting [12] is: 48 h, HFF host cells, 48 hours, read-out: % Inhibition.
Where [13] appears, read: 72 h, HFF host cells, 72 hours, read-out: % Inhibition.
Where [14] appears, read: 72 h, HFF host cells, 5.0 μg/ml, 72 hours, read-out: % Inhibition.

Broadly, the EC50 is the concentration needed to bring the measured effect to its halfway point. On to `CCC(C)(NC(=O)c1cc(Cl)cc(Cl)c1)C(=O)C(Br)Br` (stereo not shown) [Compound 4], for which the EC50 in data set [1] is 0.3 µg/mL (≈ 0.673 µM); in data set [2] (24 hours, 25° C.) it was 0.1 µg/mL (≈ 0.224 µM); in data set [3], 0.2 µg/mL (≈ 0.448 µM).
In the same order, the values of `CCC(C)(NC(=O)c1cc(Cl)c(N)c(C=NOC)c1)C(=O)CCl` (stereo not shown) [Compound 6, 4-amino-3-chloro-5-methoxyiminomethyl-N-(3-chloro-1-ethyl-1-methyl-2-oxopropyl)benzamide] are 0.009 µg/mL (≈ 0.025 µM), 0.02 µg/mL (≈ 0.0555 µM) and 0.6 µg/mL (≈ 1.67 µM).
As for `CCC(C)(NC(=O)c1cc(Cl)cc(Cl)c1)C(=O)CSC#N` (stereo not shown) [Compound 7], the concentration giving a half-maximal response (EC50) in [1] turned out to be 0.05 µg/mL (≈ 0.145 µM); in data set [2] (24 hours, 25° C.) it was 0.07 µg/mL (≈ 0.203 µM); in [3], 0.6 µg/mL (≈ 1.74 µM).
`CCC(C)(NC(=O)c1cc(Cl)cc(Cl)c1)C(=O)CN=C=S` (stereo not shown) [Compound 8]: the EC50 in [1] was determined as 0.2 µg/mL (≈ 0.579 µM); in data set [2] (24 h), 0.07 µg/mL (≈ 0.203 µM); in data set [3], 0.7 µg/mL (≈ 2.03 µM).
In general, inhibition refers to the percentage by which the read-out fell short of the control. In the case of `CCC(C)(NC(=O)c1cc(F)cc(F)c1)C(=O)CCl` (stereo not shown) [Compound 12], the inhibition at 24 h stood at 4.6% in [4] (0.5 μg/ml); 7.7% in data set [4] (5.0 μg/ml); 8% in data set [9] (L929, 0.5 μg/ml); 18.9% in data set [9] (L929, 5.0 μg/ml). In addition, the inhibition at 48 h stood at 5.4% in data set [4] (0.5 μg/ml); 29.1% in data set [4] (5.0 μg/ml); 0% in data set [9] (L929, 0.5 μg/ml); 66.8% in data set [9] (L929, 5.0 μg/ml). The inhibition at 72 h in [4] (0.5 μg/ml) was found to be 0%; in [4] (5.0 μg/ml) it was 41.3%; in [9] (L929, 0.5 μg/ml) it was 0%; in data set [9] (L929, 5.0 μg/ml), 88%. Besides, the inhibition at 0.1 µM in [5] worked out at 9.4%. Further, 1 µM produced 7.2% inhibition in [5]. This compound also returned an inhibition at 10 µM in data set [5] of 21.3%. This compound also returned an inhibition at 100 µM in [5] of 88.9%. In data set [6], this compound came in with a cytotoxicity at 48 h, 0.1 µM of 11.2%. In addition, in data set [6], the cytotoxicity at 48 h, 1 µM worked out at 2.5%. In addition, in data set [6], the cytotoxicity at 48 h, 10 µM came to 9.9%. In addition, the cytotoxicity at 48 h, 100 µM in [6] was 9.9%. The inhibition at 0.5 µg/mL in data set [7] (L929, 24 h, 24 hours) came to 42%; in [7] (L929, 48 h, 48 hours), 77.6%; in data set [7] (L929, 72 h, 72 hours), 59%; in data set [8] (setting [10]), 53.4%; in data set [8] (setting [12]), 95.3%; in data set [8] (setting [13]) it was 91.6%. The inhibition at 5 µg/mL worked out at 2.8% in data set [7] (L929, 24 h, 24 hours); 55% in data set [7] (L929, 48 h, 48 hours); 86.2% in data set [7] (L929, 72 h, 72 hours); 84.4% in data set [8] (setting [11]); 97.3% in data set [8] (48 h); 99.8% in data set [8] (setting [14]).
As to `CCC(C)(NC(=O)c1cc(Br)c(N)c(Br)c1)C(=O)CCl` (stereo not shown) [Compound 14], the inhibition at 24 h stood at 4.1% in [4] (0.5 μg/ml); 5.8% in data set [4] (5.0 μg/ml); 8.9% in data set [9] (L929, 0.5 μg/ml); 21.8% in data set [9] (L929, 5.0 μg/ml). The inhibition at 48 h came out at 3.7% in data set [4] (0.5 μg/ml); 31.8% in [4] (5.0 μg/ml); 0% in [9] (L929, 0.5 μg/ml); 58.7% in data set [9] (L929, 5.0 μg/ml). For the same compound, the inhibition at 72 h in data set [4] (0.5 μg/ml) came out at 0%; in [4] (5.0 μg/ml), 53.6%; in data set [9] (L929, 0.5 μg/ml), 0%; in [9] (L929, 5.0 μg/ml) it was 77.6%. For the same compound, testing at 0.1 µM in data set [5] gave an inhibition of 2.1%. In data set [5], this compound registered an inhibition at 1 µM of 11.3%. The compound also returned an inhibition at 10 µM in [5] of 35.4%. The same compound yielded an inhibition at 100 µM in data set [5] of 86.7%. Besides, the cytotoxicity at 48 h, 0.1 µM in [6] came out at 21%. The cytotoxicity at 48 h, 1 µM in [6] amounted to 6.1%. The cytotoxicity at 48 h, 10 µM in data set [6] is 3.9%. In [6], this compound displayed a cytotoxicity at 48 h, 100 µM of 22.3%. The inhibition at 0.5 µg/mL in data set [7] (L929, 24 h, 24 hours) was 29.3%; in data set [7] (L929, 48 h, 48 hours) it was 79.8%; in data set [7] (L929, 72 h, 72 hours), 84.9%; in data set [8] (setting [10]), 63.9%; in data set [8] (setting [12]) it was 96.1%; in data set [8] (setting [13]) it was 77.8%. The inhibition at 5 µg/mL was 6.9% in data set [7] (L929, 24 h, 24 hours); 61.2% in data set [7] (L929, 48 h, 48 hours); 79.7% in data set [7] (L929, 72 h, 72 hours); 87.4% in [8] (setting [11]); 99.7% in data set [8] (48 h, HFF host cells, 5.0 μg/ml, 48 hours, read-out: % Inhibition); 99.1% in data set [8] (setting [14]).
For `CCC(C)(NC(=O)c1cc(Cl)c2ncoc2c1)C(=O)CCl` (stereo not shown) [Compound 16], the concentration for a half-maximal effect (EC50) amounted to 2 µg/mL (≈ 6.08 µM) in [1]; 0.6 µg/mL (≈ 1.82 µM) in data set [2] (24 hours, 25° C.); 7 µg/mL (≈ 21.3 µM) in data set [3].
